One series is described as follows: Acute toxicity in mice. Particulars: in vivo; mouse, oral administration, after one week; read-out: Acute Toxicity (LD50), A. The method, boiled down:
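Male dd-strain mice (18 to 24 g), groups of 5, dosed orally or intraperitoneally with test compounds. Survival ratio recorded one week after administration.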

The next series can be described thus: Acute toxicity in rats. Particulars: in vivo; rat, oral administration, after one week; read-out: Acute Toxicity (LD50), C. The method, boiled down:
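Male Wistar rats (~200 g), groups of 5, given compounds orally; survival ratio recorded after one week.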

Another series deals with Mouse. Description: Tonic convulsion of hind paw of mice (stimulus by hand touch). The conditions noted are these: oral, 30 to 360 minutes. The format is in vivo, mice (male dd-strain). The procedure:
(1) Acute toxicity and tonic convulsion in hind paw:
The acute toxicity and tonic convulsion occured by stimulus by hand touch were determined in the following manner to give the results shown in Table 2.
(c) Tonic convulsion of hind paw of mice:
38 Groups, each consisting of 5 mice (male dd-strain, weight -- 18 to 24 g), were used for the test and control groups. The compounds shown in Table 2 were orally administered to the mice. At 30, 60, 120, 180 and 360 minutes after the administration, stimulus by hand touch was given to the mice and the tonic convulsion was observed.

Series [1] concerns hyperlipemia induced by Triton. The series can be described thus: Cholesterol-lowering activity on hyperlipemia induced by Triton in mice. Type of series: in vivo, mice (male dd-strain). Particulars: Mus musculus, po, 43 h, read-out: Ratio of the reduction of cholesterol. In outline: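 Male dd-strain mice (19–21 g, n=9/group) given Triton to induce hyperlipemia, then dosed orally with 100 mg/kg compound immediately and 20 h after Triton. Serum cholesterol measured at 43 h post-Triton by the Zurkowski–Shibata colorimetric method (sulfosalicylic/acetic/sulfuric acids, OD 620 mμ).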

Another series deals with Cholesterol in the serum. Description: Cholesterol-lowering activity on normal rats of Wistar strain (serum cholesterol, liver weight). The format is in vivo, rats (male Wistar strain). The conditions noted are these: 0.3% in diet; for B - Ratio of decrease of liver weight: continuous administration for 4 days; for C - Ratio of decrease of cholesterol / D - Ratio of increase of liver weight: continuous administration for 14 days. The method, boiled down: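 Male Wistar rats (150–180 g), groups of 5; serum separated from blood taken by decapitation. Serum cholesterol measured by Zurkowski's method as modified by Shibata; livers excised and weighed. Values expressed as % of normal rats fed powdered diet without compound.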

The structures appear in SMILES notation.

As to `O=C(NC(Cc1ccccc1)C(=O)O)SCc1ccccc1` (racemic) [Compound 17, N-benzylthiocarbonyl-D,L-phenylalanine], the LD50 – broadly, the dose expected to kill half of the subjects tested – at 168 h in “Acute toxicity in mice” was > 1000 mg/kg; in the series “Acute toxicity in rats”, > 100 mg/kg. The Tonic convulsion entry with Mouse (D = 1000 mg/kg) is recorded as “+”. Also, the inhibition in vivo at 100 mg/kg in series [1] was found to be 95%. Also, in the series on Cholesterol in the serum, the “B - Ratio of decrease of liver weight” value was 35.2%.

With `COC(=O)[C@H](Cc1ccccc1)NC(=O)SCc1ccc(F)cc1` [Compound 12, N-(4-fluorobenzylthiocarbonyl)-L-phenylalanine methylester], the results for the LD50 at 168 h in the series “Acute toxicity in mice” and in “Acute toxicity in rats” were > 1000 mg/kg and > 100 mg/kg, respectively. For the same molecule, the Tonic convulsion result in the series with Mouse (D = 1000 mg/kg) is “+”. Besides, the inhibition in vivo at 100 mg/kg in series [1] stood at 76%. Moreover, the “B - Ratio of decrease of liver weight” value in the series with Cholesterol in the serum is reported as 45.9%.

Turning to `O=C(N[C@@H](Cc1ccccc1)C(=O)O)SCc1ccccc1` [Compound 16, N-benzylthiocarbonyl-L-phenylalanine], the LD50 at 168 h in the series “Acute toxicity in mice” was > 1000 mg/kg. In addition, the LD50 at 168 h in the series “Acute toxicity in rats” is > 200 mg/kg. The Tonic convulsion result in the series with Mouse (D = 500 mg/kg) was “+”. For the same molecule, the inhibition in vivo at 100 mg/kg in series [1] was determined as 86%. Besides, in the series on Cholesterol in the serum, the “C - Ratio of decrease of cholesterol” value worked out at 9.2% and the “D - Ratio of increase of liver weight” value is on record as 79%.

With `COC(=O)[C@H](Cc1ccccc1)NC(=O)SCc1ccccc1` [Compound 18, N-benzylthiocarbonyl-L-phenylalanine methylester], the LD50 at 168 h in the series “Acute toxicity in mice” was > 1000 mg/kg. The LD50 at 168 h in the series “Acute toxicity in rats” was > 200 mg/kg. Besides, in the series on Mouse (D = 500 mg/kg), the Tonic convulsion result is given as “+”. The inhibition in vivo at 100 mg/kg in series [1] came out at 80%. In the series on Cholesterol in the serum, the “B - Ratio of decrease of liver weight” value was 39%, the “C - Ratio of decrease of cholesterol” value came to 3.0% and the “D - Ratio of increase of liver weight” value is listed as 92%.

Source of the values: US4138485A, “Phenylalanine derivatives” (Kyowa Hakko Kogyo Kabushiki Kaisha, priority 1976, dated 1979).
